What was measured:
[1] = Solubility of TSC in aqueous PEG400/NaCl/sucrose formulations; format: physicochemical
Method: (§1) 1650 grams of sucrose was added to 51.59 Kg of WFI with mixing in a Nalgene tank containing a tank liner. 2475 grams of PEG400 was then added to the tank with mixing. After the sucrose and PEG400 were completely dissolved, 110 grams of TSC was added and the solution was mixed at room temperature for a minimum of 30 minutes or until the solution was clear. The solution was then filtered through a 0.45 μm glass fiber prefilter+0.2 μm sterile filter at a pump speed of 700 mL/min into a 100 L Biobag. A sample of the filtrate was pulled from the Biobag solution for a bioburden test. The Biobag was stored at 2-8° C. for at least 12 hours and then brought to room temperature and sterile filtered through 0.45 μm glass fiber prefilter+0.2 μm sterile filter at a pump speed of 700 mL/min to a 100 L Biobag. The sterile filtrate was then filled into amber 10R vials with a target 10.5 ml fill volume.
Other exemplary TSC aqueous solutions were formulated with varying concentrations of PEG400, NaCl, sucrose and TSC concentrations.
(§2) All formulations could be carried out at room temperature with mixing. The dissolution of TSC was generally completed within 10 minutes. […] The solution pH is around 8.7 and no further pH adjustment was needed. The final formulation has an osmolality around 270 mOsm.

[2] = Properties of TSC aqueous formulation (dissolution, crash-out on dilution/storage, pH, osmolality); format: physicochemical
Method: as §1, §2

## CC(/C=C/C=C(\C)C(=O)[O-])=C\C=C\C=C(C)\C=C\C=C(/C)C(=O)[O-].[Na+].[Na+] [TSC, trans sodium crocetinate]
[1]; PEG400 2% (v/v), NaCl 0%, sucrose 0%, TSC 2 mg/mL
  Observation (solubility): soluble
[1]; PEG400 4% (v/v), NaCl 0%, sucrose 0%, TSC 4 mg/mL
  Observation (solubility): soluble
[1]; PEG400 4% (v/v), NaCl 0%, sucrose 3% (w/v), TSC 2 mg/mL
  Observation (solubility): soluble
[1]; PEG400 4% (v/v), NaCl 0.9% (w/w), sucrose 0%, TSC 2 mg/mL (first of two identical lines)
  Observation (solubility): partially soluble
[1]; PEG400 4% (v/v), NaCl 0.9% (w/w), sucrose 0%, TSC 2 mg/mL (second of two identical lines)
  Observation (solubility): soluble
[1]; PEG400 4% (v/v), NaCl 0.9% (w/w), sucrose 0%, TSC 4 mg/mL
  Observation (solubility): partially soluble
[1]; PEG400 6% (v/v), NaCl 0%, sucrose 0%, TSC 4 mg/mL
  Observation (solubility): soluble
[1]; PEG400 8% (v/v), NaCl 0%, sucrose 0%, TSC 8 mg/mL
  Observation (solubility): saturated with some
[1]; PEG400 80% (v/v), NaCl 0% (w/w), sucrose 0% (w/v), TSC 20 mg/mL
  Observation (solubility): soluble
[2]; all formulations, room temperature with mixing
  dissolution of TSC, time to completion: ≤ 10 min
[2]; storage at 2-8° C.
  TSC crash out of solution after storage: No TSC was observed to crash out
[2]; ten times dilution in 0.9% saline, 2 mg/mL formulation
  TSC crash out of the solution upon dilution: No TSC was observed to crash out

Reference: patent US20240350446A1, “CAROTENOID SOLUTIONS AND USES THEREOF” (L.E.A.F. HOLDINGS GROUP LLC, priority 2020, published 2024)
